Converted amounts (≈) assume the structure as drawn.

One test concerns P. aeruginosa biofilms. The experiment in a line: Biofilm growth assay (spreading biofilm on semi-solid agar), P. aeruginosa. Format: cell-based. Conditions: biofilm growth assay, overnight 37° C., vs negative controls, Tables 1-5; for IC85: Pseudomonas aeruginosa, read-out: P. aeruginosa: concentration that reduces the area of the spreading biofilm by greater than or equal to 85%. In outline:
(§1)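 Values are compound concentrations (μg/ml) that cut the spreading-biofilm zone area by ≥85% relative to negative controls after overnight 37 °C growth from 5 μL central inoculum. E. coli plates: LB, 0.6% agar, 0.5% glucose; P. aeruginosa plates: M8 agar plus 0.2% glucose, 100 μM CaCl2, 1 mM MgSO4, 0.5% Casamino acids.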

Another test relates to E. coli biofilms. Briefly: Biofilm growth assay (spreading biofilm on semi-solid agar), E. coli. Format: cell-based. Conditions: biofilm growth assay, overnight 37° C., vs negative controls, Tables 1-5; for IC85: Escherichia coli, read-out: E. coli: concentration that reduces the area of the spreading biofilm by greater than or equal to 85%. In outline: as §1

With `CC1(C)CC[C@]2(c3n[nH]c(O)c3CCN)CC[C@]3(C)C(=CCC4[C@@]5(C)Cc6c(n[nH]c6N)C(C)(C)[C@@H]5CC[C@]43C)[C@@H]2C1` (stereo partly drawn) [Compound 84, 3-((4aS,6aS,6bR,13aR)-12-Amino-2,2,6a,6b,9,9,13a-heptamethyl-2,3,4,4a,5,6,6a,6b,7,8,8a,9,11,13,13a,13b,14,15b-octadecahydro-1H-chryseno[1,2-f]indazol-4-a-yl)-4-(2-aminoethyl)-1H-pyrazol-5-ol], the values for the IC85 with P. aeruginosa biofilms and in the test with E. coli biofilms were 0.125 µg/mL (≈ 0.217 µM) and 0.5 µg/mL (≈ 0.87 µM), respectively.

Take `CC1(C)CC[C@]2(c3nnco3)CC[C@]3(C)C(=CCC4[C@@]5(C)Cc6c(n[nH]c6N)C(C)(C)C5CC[C@]43C)C2C1` (stereo partly drawn) [Compound 67, (4aS,6aS,6bR,13aR)-2,2,6a,6b,9,9,13a-Heptamethyl-4-a-(1,3,4-oxadiazol-2-yl)-2,3,4,4a,5,6,6a,6b,7,8,8a,9,11,13,13a,13b,14,15b-octadecahydro-1H-chryseno[1,2-f]indazol-12-amine]: in the test with P. aeruginosa biofilms, the “P. aeruginosa: concentration that reduces the area of the spreading biofilm by greater than or equal to 85%” value stood at 1 µg/mL. Moreover, the “E. coli: concentration that reduces the area of the spreading biofilm by greater than or equal to 85%” value with E. coli biofilms was 2 µg/mL.

As for `CC1(C)CC[C@]2(C(=O)O)CC[C@]3(C)C(=C(c4cccc(CN)c4)CC4[C@@]5(C)Cc6c(n[nH]c6N)C(C)(C)C5CC[C@]43C)C2C1` (stereo partly drawn) [Example 18, (4aS,6aS,6bR,13aR)-12-Amino-15-(3-(aminomethyl)phenyl)-2,2,6a,6b,9,9,13a-heptamethyl-2,3,4,4a,5,6,6a,6b,7,8,8a,9,11,13,13a,13b,14,15b-octadecahydro-1H-chryseno[1,2-f]indazole-4-a-carboxylic acid], the “P. aeruginosa: concentration that reduces the area of the spreading biofilm by greater than or equal to 85%” value with P. aeruginosa biofilms was found to be 0.5 µg/mL. Also, the “E. coli: concentration that reduces the area of the spreading biofilm by greater than or equal to 85%” value with E. coli biofilms came to 1 µg/mL.

For the compound `CC1(C)CC[C@]2(C(=O)O)CC[C@]3(C)C(=C(c4ccoc4CN4CCOCC4)CC4[C@@]5(C)Cc6c(n[nH]c6N)C(C)(C)[C@@H]5CC[C@]43C)[C@@H]2C1` (stereo partly drawn) [Example 32, (4aS,6aS,6bR,8aR,13aR,15bS)-12-Amino-2,2,6a,6b,9,9,13a-heptamethyl-15-(2-(morpholinomethyl)furan-3-yl)-2,3,4,4a,5,6,6a,6b,7,8,8a,9,11,13,13a,13b,14,15b-octadecahydro-1H-chryseno[1,2-f]indazole-4-a-carboxylic acid], the “P. aeruginosa: concentration that reduces the area of the spreading biofilm by greater than or equal to 85%” value in the test with P. aeruginosa biofilms was 0.5 µg/mL. Moreover, the “E. coli: concentration that reduces the area of the spreading biofilm by greater than or equal to 85%” value with E. coli biofilms is 1 µg/mL.

For `CC1(C)CC[C@]2(C(=O)O)CC[C@]3(C)C(=C(Br)CC4[C@@]5(C)Cc6c(n[nH]c6N)C(C)(C)[C@@H]5CC[C@]43C)[C@@H]2C1` (stereo partly drawn) [Example 25, (4aS,6aS,6bR,8aR,13aR,15bR)-12-Amino-15-bromo-2,2,6a,6b,9,9,13a-heptamethyl-2,3,4,4a,5,6,6a,6b,7,8,8a,9,11,13,13a,13b,14,15b-octadecahydro-1H-chryseno[1,2-f]indazole-4-a-carboxylic acid], the “P. aeruginosa: concentration that reduces the area of the spreading biofilm by greater than or equal to 85%” value in the test with P. aeruginosa biofilms was determined as 0.5 µg/mL. The “E. coli: concentration that reduces the area of the spreading biofilm by greater than or equal to 85%” value in the test on E. coli biofilms was above 2 µg/mL.

On to `CC1(C)CC[C@]2(C(=O)O)CC[C@]3(C)[C@H](C(=O)C=C4[C@@]5(C)C=C(C#N)C(=O)C(C)(C)[C@@H]5CC[C@]43C)[C@@H]2C1` [L], for which the IC85 in the test with P. aeruginosa biofilms and with E. coli biofilms was above 16 µg/mL each time.

Consider `CC1(C)CC[C@]2(C(=O)O)CC[C@]3(C)C(=C(c4ccsc4CN4CCOCC4)CC4[C@@]5(C)Cc6c(n[nH]c6N)C(C)(C)C5CC[C@]43C)C2C1` (stereo partly drawn) [Example 34, (4aS,6aS,6bR,13aR)-12-Amino-2,2,6a,6b,9,9,13a-heptamethyl-15-(2-(morpholinomethyl)thiophen-3-yl)-2,3,4,4a,5,6,6a,6b,7,8,8a,9,11,13,13a,13b,14,15b-octadecahydro-1H-chryseno[1,2-f]indazole-4-a-carboxylic acid], for which the “P. aeruginosa: concentration that reduces the area of the spreading biofilm by greater than or equal to 85%” value with P. aeruginosa biofilms amounted to 1 µg/mL. Besides, in the test on E. coli biofilms, the “E. coli: concentration that reduces the area of the spreading biofilm by greater than or equal to 85%” value is 1 µg/mL.

With `CN(C)c1cccc(C2=C3C4CC(C)(C)CC[C@]4(C(=O)O)CC[C@@]3(C)[C@]3(C)CCC4C(C)(C)c5n[nH]c(N)c5C[C@]4(C)C3C2)c1` (stereo partly drawn) [Example 21, (4aS,6aS,6bR,13aR)-12-Amino-15-(3-(dimethylamino)phenyl)-2,2,6a,6b,9,9,13a-heptamethyl-2,3,4,4a,5,6,6a,6b,7,8,8a,9,11,13,13a,13b,14,15b-octadecahydro-1H-chryseno[1,2-f]indazole-4-a-carboxylic acid], the “P. aeruginosa: concentration that reduces the area of the spreading biofilm by greater than or equal to 85%” value with P. aeruginosa biofilms is 0.5 µg/mL. The “E. coli: concentration that reduces the area of the spreading biofilm by greater than or equal to 85%” value in the test on E. coli biofilms was above 2 µg/mL.

As for `CC1(C)CC[C@]2(c3n[nH]c(O)c3N3CCOCC3)CC[C@]3(C)C(=CCC4[C@@]5(C)Cc6c(n[nH]c6N)C(C)(C)[C@@H]5CC[C@]43C)[C@@H]2C1` (stereo partly drawn) [Compound 88, 3-((4aS,6aS,6bR,13aR)-12-Amino-2,2,6a,6b,9,9,13a-heptamethyl-2,3,4,4a,5,6,6a,6b,7,8,8a,9,11,13,13a,13b,14,15b-octadecahydro-1H-chryseno[1,2-f]indazol-4-a-yl)-4-morpholino-1H-pyrazol-5-ol], the IC85 turned out to be 0.25 µg/mL (≈ 0.405 µM) in the test with P. aeruginosa biofilms and 0.5 µg/mL (≈ 0.811 µM) in the test on E. coli biofilms.

Regarding `CC1(C)CC[C@]2(C(=O)n3ccnc3N)CC[C@]3(C)C(=CCC4[C@@]5(C)Cc6c(n[nH]c6N)C(C)(C)C5CC[C@]43C)C2C1` (stereo partly drawn) [Compound 73, (2-Amino-1H-imidazol-1-yl)((4aS,6aS,6bR,13aR)-12-amino-2,2,6a,6b,9,9,13a-heptamethyl-2,3,4,4a,5,6,6a,6b,7,8,8a,9,11,13,13a,13b,14,15b-octadecahydro-1H-chryseno[1,2-f]indazol-4-a-yl)methanone], the IC85 with P. aeruginosa biofilms and with E. coli biofilms was 1 µg/mL (≈ 1.79 µM) throughout.

With `CNc1[nH]nc2c1C[C@@]1(C)C(CC[C@]3(C)C1CC=C1C4CC(C)(C)CC[C@]4(C(=O)O)CC[C@]13C)C2(C)C` (stereo partly shown) [I], the IC85 with P. aeruginosa biofilms was above 16 µg/mL; in the test with E. coli biofilms, 8 µg/mL (≈ 15.8 µM).

Regarding `CC1(C)CC[C@]2(c3cc(N)[nH]n3)CC[C@]3(C)C(=CCC4[C@@]5(C)Cc6c(n[nH]c6N)C(C)(C)C5CC[C@]43C)C2C1` (stereo partly drawn) [Compound 60, (4aS,6aS,6bR,13aR)-4-a-(5-Amino-1H-pyrazol-3-yl)-2,2,6a,6b,9,9,13a-heptamethyl-2,3,4,4a,5,6,6a,6b,7,8,8a,9,11,13,13a,13b,14,15b-octadecahydro-1H-chryseno[1,2-f]indazol-12-amine], the “P. aeruginosa: concentration that reduces the area of the spreading biofilm by greater than or equal to 85%” value in the test on P. aeruginosa biofilms stood at 0.5 µg/mL. The “E. coli: concentration that reduces the area of the spreading biofilm by greater than or equal to 85%” value with E. coli biofilms was 1 µg/mL.

For the compound `CC1(C)CC[C@]2(C(=O)O)CC[C@]3(C)C(=C(c4cncnc4)CC4[C@@]5(C)Cc6c(n[nH]c6N)C(C)(C)[C@@H]5CC[C@]43C)[C@@H]2C1` (stereo partly drawn) [Example 30, (4aS,6aS,6bR,8aR,13aR,15bS)-12-Amino-2,2,6a,6b,9,9,13a-heptamethyl-15-(pyrimidin-5-yl)-2,3,4,4a,5,6,6a,6b,7,8,8a,9,11,13,13a,13b,14,15b-octadecahydro-1H-chryseno[1,2-f]indazole-4-a-carboxylic acid], the “P. aeruginosa: concentration that reduces the area of the spreading biofilm by greater than or equal to 85%” value in the test with P. aeruginosa biofilms was 2 µg/mL. Also, in the test with E. coli biofilms, the “E. coli: concentration that reduces the area of the spreading biofilm by greater than or equal to 85%” value was 1 µg/mL.

Take `C=C(C)[C@@H]1CC[C@]2(CO)CC[C@]3(C)[C@H](CC[C@@H]4[C@@]5(C)CC[C@H](O)C(C)(C)[C@@H]5CC[C@]43C)[C@@H]12` [Betulin, reference compound]: the IC85 was 16 µg/mL (≈ 36.1 µM) in the test with P. aeruginosa biofilms and above 16 µg/mL in the test on E. coli biofilms.

The record behind these values is patent publication US8324264B1, “Inhibitors of bacterial biofilms and related methods” (Sequoia Sciences, Inc., priority 2011, dated 2012).
